Source: patent US6413937B1, “Combinations for use in increasing the potency of a substrate for multidrug resistance related protein” (Dublin City University and Enterprise Ireland, priority 1996, dated 2002)
Blank lines part the entries; values can stand above or below the compound they belong to.

Columns and labels:
[1] = system: DLKP cell line; assay: miniaturised in vitro colorimetric cell survival assay (acid phosphatase end-point), DLKP; assay type: cell-based, human
Procedure: (§1) All the results presented in this Example for the DLKP, A549 and OAW42-SR cell lines were derived using the same miniaturised in vitro calorimetric assay system. On Day 1 of the assay 1000 cells/well/100 μl were plated into 96-well plates. Cells were allowed to attach overnight and cell viability was visually assessed. […] NSAID plus chemotherapeutic drug) to be analysed were added onto the cells. The individual drugs were added separately in 50 μl quantities (4× stocks, to take into account the dilution effect of having 200 μl final volume in each well). The drugs were left on the cells for five further days (Day 7) and cell number was determined using the acid phosphatase end-point assay which uses p-nitrophenol phosphate as substrate (Martin, A. and Clynes, M. (1991) In Vitro Dev. Biol., 27A, 183-184). On Day 7 the culture medium was removed from the cells and they were washed once with phosphate buffered saline (PBS). […] After the incubation period 50 μl of 1N NaOH was added to each well to develop the colour. The plates were then read at 405 nm (reference 620 nm) on an ELISA plate-reader. […] All results are the cell survival means ±S.D. from a minimum of three experiments.

[2] = system: GST prepared from DLKP cells; assay: total GST assay with 1-chloro-2,4-dinitrobenzene; assay type: biochemical, human
Procedure: The other NSAIDs were tested in a total GST assay (Habig, W. H., and Jakoby, W. B., (1981); Methods Enzymol., 77: 218-231). Total cellular GST activity was assayed, using 1-chloro-2,4-dinitrobenzene as a substrate, according to the method of Habig, W. H., and Jakoby, W. B., (1981); supra. Due to spectrophotometric interference at 340 nm, caused by the majority of the NSAIDs, the assays were all performed at 360 nm, without any apparent effect on the rate of the control reaction The results are shown in Table 5.

[3] = system: A549 cell line; assay: miniaturised in vitro colorimetric cell survival assay (acid phosphatase end-point), A549; assay type: cell-based, human
Procedure: as §1

[4] = system: MRP-specific substrates; assay: screen for enhancement of toxicity of MRP substrates by NSAIDs; assay type: cell-based; conditions: summary statements
[5] = system: DLKP cells; assay: Example 5 miniaturised in vitro cell toxicity assay, DLKP; assay type: cell-based, human
Procedure: For the monolayer cell lines miniaturised in vitro assays were used to determine drug toxicity. On Day I cells were seeded at 1×10^3 cells/well in a 96-well plate and left to attach overnight. Drug was added on Day 2, and the assay was terminated on Day 7. Cell number was then evaluated by using one of two colorimetric end-point […]: the acid phosphatase assay (Martin, A., and Clynes, M. (1991); In vitro Cell and Development Biology, 27A: 183-184) or the crystal violet dye elution assay (Martin, A., and Clynes, M. (1993); Cytotechnology, 11:49-58). All assays were performed in triplicate.

[6] = molecular target: T1, MRP pump (Homo sapiens, UniProt P33527); assay: ATP-dependent transport of [3H]LTC4 into inside-out plasma membrane vesicles from HL60ADR cells; assay type: biochemical; conditions: for MRP-pump inhibitory activity: conclusion from Table 4
T1 construct: inside-out plasma membrane vesicles prepared from HL60ADR cells; endogenous in cells; host or cells: HL60ADR cells (plasma membrane vesicles)
Procedure: To determine if the NSAIDs were acting directly on the MRP pump the uptake of [^3H]LTC4 into inside-out plasma membrane vesicles prepared from HL60ADR cells was examined using a rapid filtration procedure (Ishikawa,T., et al. (1994); J. Biol. Chem. 269 (46); 29085-29093). ATP-dependent transport of [^3H]LTC4 into the membrane vesicles was measured by a rapid filtration method using a Millipore sampling manifold. The membrane vesicles were thawed at 37° C. before use and kept on ice. The reaction components consisted of 0.25 M sucrose/10 mM Tris.HCl pH 7.4/1 mM ATP/10 mM MgCl2/10 mM creatine phosphate/ 110 μg/ml creatine kinase and 10 nM [^3H]LTC4, with 50 μg of the inside-out vesicle preparation, in a final volume of 110 μl. This suspension was incubated at 37° C., with gentle mixing, and aliquots, 20 μl, were taken at the indicated points. Those aliquots were diluted in 1 ml of ice-cold incubation buffer before being applied to 0.22 μm Millipore GSWP nitrocellulose filters, pre-soaked in ice-cold incubation buffer, under suction. The filters were subsequently washed with 3 ml ice-cold incubation buffer, and absorbed radioactivity was measured using a scintillation counter (Beckman). In control experiments ATP was replaced with 5μ-AMP to determine the ATP-dependent transport.

[7] = system: DLKP-7 cells; assay: adriamycin efflux from loaded cells, HPLC; assay type: cell-based
Procedure: DLKP-7 cells were seeded into 75 cm^2 flasks at 0.5×10^6 cells/10 ml ATCC medium. The cells were left for 2 days, the ATCC medium was removed and fresh medium containing adriamycin (0.5 μg/ml) was added. Following a 2 hour incubation this medium was removed, the flasks were washed twice with PBS, 10 ml ATCC medium or ATCC medium containing the test NSAID was added, and the cells were incubated for a further 4 hr. The cells were trypsinised and the pellet was frozen at −20° C. Duplicate flasks for each time point were prepared. The NSAIDs used were indomethacin 10 μg/ml and piroxicam 20 μg/ml.
The amount of adriamycin in the cells was quantified using liquid-liquid extraction and reverse-phase HPLC analysis. The frozen cell pellets were thawed and resuspended in […] of water/100 μl of 33% silver nitrate and mixed for 5 min. 300 μl of methanol, containing 1.5 μg of daunorubicin as an internal standard (IS), and 1.3 ml of acetonitrile were then added and the tubes mixed for a further 5 min. The mixture was transferred to glass tubes and kept at 4° C. for 1 hr. The tubes were then centrifuged at 1000 g for 15 min. to pellet any solid material. 1.1 ml of the supernatant was removed to HPLC autosampler vials (Labquip, Dublin, Ireland). The solvent was evaporated off at room temperature under a stream of nitrogen gas.
The extract was resuspended in 50 μl of mobile phase 1 (MP1): 32 ml of 0.1 M phosphoric acid mixed with 244 ml of ultrapure water, pH: 2.3 (adjusted upwards with a few drops of 1N potassium hydroxide) to which 124 ml of acetonitrile was added and the final mixture was degassed in a sonicating bath for 5 min. The second mobile phase (MP2) consisted of acetonitrile. The resuspended sample (20 μl) was automatically injected into the HPLC system. The HPLC system comprised a Beckman System Gold 507 autosampler, 125 pump and 166 detector. The MP was pumped through a C18 reversed-phase Prodigy 5 μm particle size ODS-3 column (Phenomenex, Macclesfield, England) (dimensions 150×4.6mm) and absorbance was measured at 253 nm. For the first 14 min. of the chromatographic run MP 1 was pumped at 0.5 ml/min. From 14 min. to 20 min. the column was switched to MP 2. At 20 min. the column was switched back to MP 1 and the flow rate increased to 1 ml/min. At 30 min. the flow rate was brought back to 0.5 ml/min. The run continued for a further 5 min. giving a total run time of 35 min. The amount of adriamycin present was quantified by measuring its peak area and the peak area of the IS. The peak area of the adriamycin was divided by the area of the IS peak and the ratio plotted against a concentration series for spiked adriamycin samples.

T1 sequence (P33527 whole entry): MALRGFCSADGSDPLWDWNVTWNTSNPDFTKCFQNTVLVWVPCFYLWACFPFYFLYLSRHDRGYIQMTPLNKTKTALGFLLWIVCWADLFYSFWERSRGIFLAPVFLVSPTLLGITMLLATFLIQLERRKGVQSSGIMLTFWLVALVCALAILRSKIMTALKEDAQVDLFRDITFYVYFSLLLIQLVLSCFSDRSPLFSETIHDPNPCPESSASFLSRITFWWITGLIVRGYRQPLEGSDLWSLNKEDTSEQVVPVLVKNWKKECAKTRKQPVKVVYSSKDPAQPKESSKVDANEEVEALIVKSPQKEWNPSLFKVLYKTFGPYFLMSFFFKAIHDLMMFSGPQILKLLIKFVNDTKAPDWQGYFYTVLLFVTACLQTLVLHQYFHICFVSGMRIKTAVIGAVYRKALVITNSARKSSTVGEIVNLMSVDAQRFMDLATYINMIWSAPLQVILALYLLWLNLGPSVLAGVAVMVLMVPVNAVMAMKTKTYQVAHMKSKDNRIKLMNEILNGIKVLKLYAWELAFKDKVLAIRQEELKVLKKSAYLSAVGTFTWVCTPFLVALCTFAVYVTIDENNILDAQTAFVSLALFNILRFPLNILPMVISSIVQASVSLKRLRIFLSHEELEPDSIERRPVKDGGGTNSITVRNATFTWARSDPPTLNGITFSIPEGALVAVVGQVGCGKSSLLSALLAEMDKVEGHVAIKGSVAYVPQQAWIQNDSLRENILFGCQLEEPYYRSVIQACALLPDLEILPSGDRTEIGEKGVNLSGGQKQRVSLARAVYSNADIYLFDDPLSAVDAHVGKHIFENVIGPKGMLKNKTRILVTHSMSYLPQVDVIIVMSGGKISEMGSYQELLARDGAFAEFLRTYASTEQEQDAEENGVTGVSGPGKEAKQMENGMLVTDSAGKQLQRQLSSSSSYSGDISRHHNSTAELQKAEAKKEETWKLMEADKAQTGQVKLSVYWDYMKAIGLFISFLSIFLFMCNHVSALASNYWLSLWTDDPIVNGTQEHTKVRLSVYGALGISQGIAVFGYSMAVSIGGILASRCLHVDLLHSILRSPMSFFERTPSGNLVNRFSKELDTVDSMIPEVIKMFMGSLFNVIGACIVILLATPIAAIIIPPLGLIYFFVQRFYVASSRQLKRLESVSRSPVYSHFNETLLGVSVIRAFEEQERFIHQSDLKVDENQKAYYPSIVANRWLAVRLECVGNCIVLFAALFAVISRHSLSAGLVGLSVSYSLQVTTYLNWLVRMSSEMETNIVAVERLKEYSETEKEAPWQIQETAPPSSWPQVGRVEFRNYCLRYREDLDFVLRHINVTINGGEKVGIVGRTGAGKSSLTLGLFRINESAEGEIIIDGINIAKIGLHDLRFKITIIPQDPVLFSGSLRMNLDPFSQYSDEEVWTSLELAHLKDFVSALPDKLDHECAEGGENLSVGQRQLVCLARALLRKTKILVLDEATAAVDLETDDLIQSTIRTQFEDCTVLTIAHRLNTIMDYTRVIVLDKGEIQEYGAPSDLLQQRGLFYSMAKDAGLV

SMILES: O=c1[nH]cc(F)c(=O)[nH]1 [5-FU, 5-flurouracil]
- % cell survival ([1]; iv) 5-FU 0.5 μg/ml alone): 66.18 ± 1.4%

SMILES: COc1ccc2c(c1)c(CC(=O)OCC(=O)O)c(C)n2C(=O)c1ccc(Cl)cc1 [Acemetacin, acemetacin]
- % Inhibition of GST ([2]; 0.25 mM): 58%
- % cell survival ([3]; viii) Acemetacin 11.50 μg/ml, alone or + Adriamycin 15 ng/ml): 102.08 ± 8.76%
- % cell survival ([3]; viii) Acemetacin 19.20 μg/ml, alone or + Adriamycin 15 ng/ml): 97.30 ± 8.46%
- % cell survival ([3]; viii) Acemetacin 37.50 μg/ml, alone or + Adriamycin 15 ng/ml): 85.04 ± 10.13%
- enhancement of toxicity of MRP substrates [4]: have been found to enhance the toxicity of MRP-specific substrates

SMILES: O=C(O)Cc1ccccc1Nc1c(Cl)cccc1Cl [Diclofenac]
- % Inhibition of GST ([2]; 0.75 mM): 54%

SMILES: COc1cccc2c1C(=O)c1c(O)c3c(c(O)c1C2=O)C[C@@](O)(C(=O)CO)C[C@@H]3O[C@H]1C[C@H](N)[C@@H](O)[C@H](C)O1 [Epirubicin, epirubicin]
- % cell survival ([5]; Epirubicin 1 ng/ml alone): 69.08 ± 3.6%

SMILES: O=C(O)CCC(=O)c1ccc(-c2ccccc2)cc1 [Fenbufen]
- % Inhibition of GST ([2]; 1 mM): 15.6%

SMILES: CC(C(=O)O)c1cccc(Oc2ccccc2)c1 (centres unmarked) [Fenoprofen]
- % Inhibition of GST ([2]; 1 mM): 22.5%

SMILES: O=C(O)c1ccccc1Nc1cccc(C(F)(F)F)c1 [Flufenamic Acid]
- % Inhibition of GST ([2]; 0.75 mM): 41.2%

SMILES: CC(C)Cc1ccc(C(C)C(=O)O)cc1 (centres unmarked) [Ibuprofen]
- % Inhibition of GST ([2]; 1 mM): 18.5%
- % cell survival ([3]; xvi) Ibuprofen 3.06 μg/ml, alone or + Adriamycin 17 ng/ml): 100.37 ± 7.94%
- % cell survival ([3]; xvi) Ibuprofen 7.92 μg/ml, alone or + Adriamycin 17 ng/ml): 96.78 ± 11.43%
- % cell survival ([3]; xvi) Ibuprofen 15.72 μg/ml, alone or + Adriamycin 17 ng/ml): 95.58 ± 8.50%

SMILES: CC(C(=O)O)c1cccc(C(=O)c2ccccc2)c1 (centres unmarked) [Ketoprofen]
- % Inhibition of GST ([2]; 1 mM): 11.2%

SMILES: c1ccc([C@H]2CN3CCSC3=N2)cc1 [Levamisole]
- % Inhibition of GST ([2]; 1 mM): 0%

SMILES: Cc1cccc(Nc2ccccc2C(=O)O)c1C [Mefenamic acid, mefenamic acid]
- % cell survival ([3]; x) Mefenamic acid 2.30 μg/ml, alone or + Adriamycin 15 ng/ml): 98.49 ± 7.66%
- % cell survival ([3]; x) Mefenamic acid 4.00 μg/ml, alone or + Adriamycin 15 ng/ml): 95.38 ± 9.21%
- % cell survival ([3]; x) Mefenamic acid 7.90 μg/ml, alone or + Adriamycin 15 ng/ml): 85.23 ± 7.80%

- MRP-pump inhibitory activity [6]: do not
SMILES: COc1ccc2cc([C@H](C)C(=O)O)ccc2c1 [Naproxen]
- % Inhibition of GST ([2]; 1 mM): 17%

- inhibition at 302 µM ([6]; 0.302 mM): 0%
- MRP-pump inhibitory activity [6]: do not
SMILES: CN1C(C(=O)Nc2ccccn2)=C(O)c2ccccc2S1(=O)=O [Piroxicam]
- enhancement of toxicity of MRP substrates [4]: negative
- % Adriamycin content at 0 h ([7]; cells loaded with adriamycin 0.5 μg/ml 2 h, indomethacin 10 μg/ml, piroxicam 20 μg/ml, 0 h): 100%
- % Adriamycin content at 4 h ([7]; cells loaded with adriamycin 0.5 μg/ml 2 h, indomethacin 10 μg/ml, piroxicam 20 μg/ml, 4 h): 67 ± 10%
- level of adriamycin within the treated cells ([7]; during the 4 hours of the experiment): gradually decreased

SMILES: O.O.O.O=C([O-])[C@H]([O-])[C@@H]([O-])C(=O)[O-].O=C([O-])[C@H]([O-])[C@@H]([O-])C(=O)[O-].[K+].[K+].[Sb+3].[Sb+3] [Potassium Antimonyl Tartrate, Potassium antimonyl tartrate]
- % cell survival ([1]; vii) Potassium Antimonyl Tartrate 1.5 μg/ml alone): 39.98 ± 3.3%

SMILES: CSc1ccc(/C=C2/C(C)=C(CC(=O)O)c3cc(F)ccc32)cc1 [Sulindac sulfide, sulindac sulfide]
- % cell survival ([3]; xii) Sulindac sulfide 1.40 μg/ml, alone or + Adriamycin 15 ng/ml): 105.83 ± 6.50%
- % cell survival ([3]; xii) Sulindac sulfide 2.70 μg/ml, alone or + Adriamycin 15 ng/ml): 104.91 ± 5.57%
- % cell survival ([3]; xii) Sulindac sulfide 6.00 μg/ml, alone or + Adriamycin 15 ng/ml): 90.19 ± 9.63%

SMILES: CC1=C(CC(=O)O)c2cc(F)ccc2/C1=C\c1ccc(S(C)(=O)=O)cc1 [Sulindac sulfone, sulindac sulfone]
- % cell survival ([3]; xiii) Sulindac sulfone 4.50 μg/ml, alone or + Adriamycin 15 ng/ml): 101.87 ± 10.52%
- % cell survival ([3]; xiii) Sulindac sulfone 8.90 μg/ml, alone or + Adriamycin 15 ng/ml): 102.21 ± 8.88%
- % cell survival ([3]; xiii) Sulindac sulfone 19.50 μg/ml alone, or (printed 19.50 mg/ml) + Adriamycin 15 ng/ml): 76.77 ± 6.49%

SMILES: COc1cc([C@@H]2c3cc4c(cc3[C@@H](O[C@@H]3O[C@@H]5CO[C@@H](c6cccs6)O[C@H]5[C@H](O)[C@H]3O)[C@H]3COC(=O)[C@H]23)OCO4)cc(OC)c1O [Teniposide, teniposide]
- % cell survival ([5]; Teniposide 6.25 ng/ml alone): 79.79 ± 0.97%

SMILES: Cc1cc(CC(=O)O)n(C)c1C(=O)c1ccc(Cl)cc1 [Zomepirac, zomepirac]
- % Inhibition of GST ([2]; 0.25 mM): 56%
- % cell survival ([3]; xv) Zomepirac 20.70 μg/ml, alone or + Adriamycin 15 ng/ml): 96.79 ± 12.10%
- % cell survival ([3]; xv) Zomepirac 38.80 μg/ml, alone or + Adriamycin 15 ng/ml): 94.89 ± 13.91%
- enhancement of toxicity of MRP substrates [4]: have been found to enhance the toxicity of MRP-specific substrates

SMILES: CCc1cccc2c3c([nH]c12)C(CC)(CC(=O)O)OCC3 (centres unmarked) [etodolac]
- enhancement of toxicity of MRP substrates [4]: does not exhibit the enhanced cytotoxicity
